# Source: patent US20240207215A1, “MARC1 INHIBITORS FOR TREATMENT OF LIPID METABOLISM DISORDERS” (priority 2020, published 2024)
# Tests used:
# human mARC2 = target: T1, human mARC2 (Homo sapiens, UniProt Q969Z3); test: mARC2 three-component system (mARC2, cytochrome b5, cytochrome b5 reductase): conversion of benzamidoxime to benzamidine, NADH consumption at 340 nm / HPLC of benzamidine; type: biochemical; conditions: recombinant mARC2 + CYB5B + CYB5R3, NADH, substrate BAO; FIG. 2
# T1 construct: made in house; host or cells: Escherichia coli
# T1 sequence (Q969Z3 36-335): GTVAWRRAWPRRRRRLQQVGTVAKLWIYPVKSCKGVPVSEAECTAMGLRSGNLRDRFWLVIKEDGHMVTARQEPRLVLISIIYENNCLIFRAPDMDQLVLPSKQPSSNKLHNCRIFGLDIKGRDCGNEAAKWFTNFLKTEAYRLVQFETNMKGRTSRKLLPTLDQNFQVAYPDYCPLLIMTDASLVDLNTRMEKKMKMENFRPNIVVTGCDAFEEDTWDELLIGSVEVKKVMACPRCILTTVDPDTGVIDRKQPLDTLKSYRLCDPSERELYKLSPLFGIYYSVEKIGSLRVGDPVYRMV
# Description: (§1) The compounds N-hydroxyurethane (R1═H, R2═CH2CH3) and ethyl-N-(3-chlorophenyl) -hydroxycarbamate (R1═3-chlorophenyl, R2═CH2CH3) are used as examples of active compounds. FIGS. 1, 3 and 4 show the absorbance at 340 nm in dependence on the time for an incubation with the three-component system mARC1 and mARC2, respectively, cytochrome b5 and cytochrome b5 reductase, which catalyze the conversion of the model substrate benzamidoxime (BAO) to benzamidine in the presence of the cosubstrate NADH (5). The decrease in the concentration of NADH due to its absorption maximum at 340 nm is thereby measured. From the measurement results, which are shown in the bar graph of FIG. 4, the inhibition of the conversion of benzamidoxime to benzamidine is evident by the lower consumption of NADH. NADH represents the required cosubstrate for the conversion. […] The down-regulation is only observed for mARC1 and not for mARC2 (FIG. 2).
# (§2) 105 μl MES buffer (20 mM, pH 6.0) was placed in a micro-UV cuvette. […] This batch was then set as a blank sample and the absorbance was zeroed. […] Herein, the absorbance spectrum between 300 nm and 400 nm was recorded every 30 s for a period of 10 min (spectrophotometer Cary® 50 Bio with Walter peltier system PCB 150, Agilent). […] The conversion rates of BAO with and without inhibitor were compared based on the absorbance change at 340 nm to determine the degree of inhibition. […]
# human mARC1 = target: T2, human mARC1 (Homo sapiens, UniProt Q5VT66); test: mARC1 three-component system (mARC1, cytochrome b5, cytochrome b5 reductase): conversion of benzamidoxime to benzamidine, NADH consumption at 340 nm / HPLC of benzamidine; type: biochemical; conditions: recombinant mARC1 + CYB5B + CYB5R3, NADH, substrate BAO, 37° C., MES pH 6.0; FIGS. 1-4 (N-hydroxyurethane and urethane 1 mM in FIGS. 1, 3)
# T2 construct: made in house; host or cells: Escherichia coli
# T2 sequence (Q5VT66 53-337 limits assumed): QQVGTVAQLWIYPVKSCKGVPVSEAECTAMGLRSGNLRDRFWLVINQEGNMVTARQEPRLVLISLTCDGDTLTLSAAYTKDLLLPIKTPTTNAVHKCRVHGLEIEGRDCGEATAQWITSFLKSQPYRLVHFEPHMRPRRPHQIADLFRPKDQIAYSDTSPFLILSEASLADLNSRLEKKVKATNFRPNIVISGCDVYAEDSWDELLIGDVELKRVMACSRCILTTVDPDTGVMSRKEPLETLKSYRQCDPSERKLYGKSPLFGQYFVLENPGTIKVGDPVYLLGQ
# Description: as §1, §2
# [1] = tested on: cytochrome b5 and/or cytochrome b5 reductase; test: Inhibition of the electron transport partners, concluded from the non-inhibited mARC2 conversion; type: biochemical, human; conditions: concluded from the non-inhibited conversion for mARC2
# Description: as §1, §2
structure (smiles),measurement,setting,value
CCOC(=O)NO [N-hydroxyurethane],down-regulation of the conversion of benzamidoxime to benzamidine by mARC2,human mARC2,not for mARC2
same,inhibition of the conversion of benzamidoxime to benzamidine by mARC1,human mARC1,inhibition occurs
same,inhibition of cytochrome b5 and/or cytochrome b5 reductase,[1],are not inhibited
CCOC(=O)N(O)c1cccc(Cl)c1 [ethyl-N-(3-chlorophenyl)-hydroxycarbamate],inhibition of the conversion of benzamidoxime to benzamidine by mARC1,human mARC1,inhibition occurs
